Test results: patent US10434095B2, “3-(1-oxo-4-((4-((3-oxomorpholino)methyl)benzyl)oxy)isoindolin-2-yl)piperidine-2,6-dione and isotopologues thereof” (Celgene Corporation, priority 2017, dated 2019)

Columns and labels:
[1] = test system: XBP-1; assay: Gene expression (RT-PCR) in differentiated B cells; assay type: cell-based, human; settings: Day 7 differentiated B cells, normalized to 0.1% DMSO; FIG. 3
Procedure: (§1) Fresh B cell cocktail was prepared by adding 50 μg/mL of human transferrin to B cell medium (Iscove's medium with 10% PFBS, 1% P/S, and 5 μg/mL human insulin). The required volume of medium needed for the experiment was filtered through a 0.22 micron filter. Add B cell differentiation cocktail (final concentration): recombinant human Interleukin (IL)-2 (20 U/mL), IL-10 (50 ng/mL), IL-15 (10 ng/mL), CD40 Ligand/TNFSF5/histidine-tagged (50 ng/mL), polyHistidine mouse IgG1 antibody (5 μg/mL), and ODN 2006-Human TLR9 ligand (10 μg/mL) to cells. Five milliliters (1×10^5/mL) of CD19^+ B cells were added to each well of a 6-well flat-bottom plate (final cell count=5×10^5/well). Five microliters of a 1× solution of compound or DMSO was added to each test well (0.1% final concentration of DMSO) and incubated at 37{dot over (◯)}° C. for 4 days.
(§2) Cells were harvested and counted on the cell counter, an aliquot was removed for flow analysis, and the remaining cells were washed with phosphate buffered saline (PBS). Fresh B cell cocktail was prepared by adding 1 μg/ml of human transferrin to B cell medium (Iscove's medium with 10% PFBS, 1% P/S, and 5 μg/mL human insulin). The required volume of medium needed for the experiment was filtered through a 0.22 micron filter. B cell differentiation cocktail (final concentration) consisting of: recombinant human IL-2 (20 U/mL), IL-10 (50 ng/mL), IL-15 (10 ng/mL), and IL-6 (50 ng/mL) was added to cells. Fresh B cell cocktail was added to cells. Cells were transferred back to the original wells and the volume was adjusted to 5 mL. Five microliters of a 1× solution of compound or DMSO was added to each test well (0.1% final DMSO) and incubated at 37{dot over (◯)}° C. for 3 days.
(§3) On Day 4 and Day 7 cells were harvested and counted on the cell counter. A portion of the cells were then removed for flow analysis and the remaining cells were lysed with RLT buffer and stored at −80° C. for RNA extraction and gene expression. Supernatants were divided into aliquots and frozen at −20° C. for immunoglobulin assays.
(§4) Differentiated B cells (see B Cell Differentiation Assay above) were harvested for total ribonucleic acid (RNA) preparation with a Qiacube RNA extraction instrument (Qiagen, Valencia, Calif.) using QIAGEN RNeasy mini spin-column kits (Catalog #74104). Purified RNA was reverse transcribed into cDNA with thermal cycler (MJ Research, Inc., St. Bruno, Quebec, Canada) using a reverse-transcriptase kit (Applied Biosystems). The gene expression assay was carried out using 7500 real time polymerase chain reaction (RT-PCR) system (Applied Biosystems) in triplicate. A glyceraldehyde 3-phosphate dehydrogenase gene expression assay control was run for each sample and used as a normalization control. For each gene, values for samples within each experiment were normalized to the corresponding 0.1% DMSO treatment value for that particular time point.

[2] = test system: IgJ; assay: Gene expression (RT-PCR) in differentiated B cells; assay type: cell-based, human; settings: Day 7 differentiated B cells, normalized to 0.1% DMSO; FIG. 3
Procedure: as §1, §2, §3, §4

[3] = test system: BLIMP-1; assay: Gene expression (RT-PCR) in differentiated B cells; assay type: cell-based, human; settings: Day 7 differentiated B cells, normalized to 0.1% DMSO; FIG. 3
Procedure: as §1, §2, §3, §4

[4] = test system: OBF-1; assay: Gene expression (RT-PCR) in differentiated B cells; assay type: cell-based, human; settings: Day 7 differentiated B cells, normalized to 0.1% DMSO; FIG. 3
Procedure: as §1, §2, §3, §4

[5] = test system: IRF-4; assay: Gene expression (RT-PCR) in differentiated B cells; assay type: cell-based, human; settings: Day 7 differentiated B cells, normalized to 0.1% DMSO; FIG. 3
Procedure: as §1, §2, §3, §4

[6] = test system: BCL-6; assay: Gene expression (RT-PCR) in differentiated B cells; assay type: cell-based, human; settings: Day 7 differentiated B cells, normalized to 0.1% DMSO; FIG. 3
Procedure: as §1, §2, §3, §4

[7] = test system: primary human CD19+ B cells differentiating toward the plasma cell lineage; assay: B cell differentiation assay, cell phenotyping by flow cytometry (CD20/CD38); assay type: cell-based; settings: in vitro primary human B cell differentiation culture; FIG. 1
Procedure: The effect of Compound I-S on the expression of transcription factors controlling plasma cell differentiation and immunoglobulin production using an in-vitro human B-cell differentiation culture system was invesitaged according to the procedures below:
Twenty-five milliliters human buffy coat were placed into each of two 50-mL conical tubes and 25 mL sterile Hank's buffered saline solution (HBSS) were added to each conical tube. The tubes were gently mixed by inverting. Fifteen milliliters of room temperature Ficoll-Paque Plus (GE Healthcare; Cat#17-1440-02) were placed into each of four 50-mL conical tubes. Then 25 mL of the buffy coat/HBSS mixture were layered gently and slowly on top of the Ficoll. […] The cell pellet was resuspended in 20 mL of B cell medium (Iscove's modified Dulbecco's medium+10% premium fetal bovine serum [PFBS], 1% penicillin/streptomycin [P/S], and 5 μg/mL human insulin), pipetted through a 30 micron filter, and an aliquot was counted using the cell counter.
Aliquots of purified PBMCs (2×10^8 cells) were placed in tubes, centrifuged at 1200 rpm for 5 minutes, and then supernatants were discarded. […] The enriched CD19^+ cells were resuspended in 5 mL of B cell medium and counted on the cell counter. […]
(§5) Cells were harvested and counted on the cell counter, an aliquot was removed for flow analysis, and the remaining cells were washed with phosphate buffered saline (PBS). […]

[8] = test system: primary human B cells; assay: Cell viability analysis (Trypan blue live cell count) in B cell differentiation culture; assay type: cell-based; settings: cell counts on Day 4 and Day 7 of the 7 day culture; FIG. 2
Procedure: as §1, §5
(§6) On Day 4 and Day 7 cells were harvested and counted on the cell counter. […]
To determine live cell count, B cells (see B Cell Differentiation Assay above) were stained with 0.4% Trypan blue (Gibco cat #15250) and live cells counted using the Countess automated cell counter (Invitrogen) in duplicate samples.

[9] = test system: IgG production; assay: Immunoglobulin assay (ELISA) of plasmablast culture supernatants; assay type: cell-based, human; settings: during plasmablast differentiation; FIG. 5
Procedure: as §1
(§7) Cells were harvested and counted on the cell counter, an aliquot was removed for flow analysis, and the remaining cells were washed with phosphate buffered saline (PBS). Fresh B cell cocktail was prepared by adding 1 μg/ml of human transferrin to B cell medium (Iscove's medium with 10% PFBS, 1% P/S, and 5 μg/mL human insulin). […]
as §6
(§8) Supernatants (see B Cell Differentiation Assay above) were harvested and analyzed by ELISA for IgG and IgM production (ZeptoMetrix Corp, Buffalo, N.Y.).

[10] = test system: IgM production; assay: as above; assay type: cell-based, human; settings: during plasmablast differentiation; FIG. 4
Procedure: as §1, §7, §6, §8

SMILES: O=C1CC[C@H](N2Cc3c(OCc4ccc(CN5CCOCC5=O)cc4)cccc3C2=O)C(=O)N1 [Compound I-S, (S)-3-(1-oxo-4-((4-((3-oxomorpholino)methyl)benzyl)oxy)isoindolin-2-yl)piperidine-2,6-dione]
- expression of plasma cell lineage transcription factor XBP-1 [1]: dose-dependently and significantly inhibited
- expression of plasma cell lineage transcription factor IgJ [2]: dose-dependently and significantly inhibited
- expression of plasma cell lineage transcription factor BLIMP-1 [3]: dose-dependently and significantly inhibited
- expression of plasma cell lineage transcription factor OBF-1 [4]: dose-dependently and significantly inhibited
- expression of plasma cell lineage transcription factor IRF-4 [5]: dose-dependently and significantly inhibited
- expression of germinal center lineage B cell transcription factor BCL-6 [6]: did not decrease
- percentage of CD20+CD38- activated B cells (ABC) [7]: increased
- percentage of CD20-CD38+ plasmablasts (PB) [7]: dose-dependently reduced
- B cell viability (live cell count) [8]: reduce B cell viability
- IgG production [9]: significantly inhibited
- IgM production [10]: significantly inhibited
